Source: ChEMBL document CHEMBL3352634 (Bioorg Med Chem Lett, 2014)
Substitutions are numbered along the chain they refer to.

How the values were obtained:
[1] = molecular target: T1, Peroxisome proliferator-activated receptor alpha (Homo sapiens, UniProt Q07869); experiment: Agonist activity at wild-type human PPARalpha LBD expressed in COS7 cells after 12 hrs by Dual-Glo luciferase assay; format: cell-based, COS-7
T1 sequence (Q07869 whole entry): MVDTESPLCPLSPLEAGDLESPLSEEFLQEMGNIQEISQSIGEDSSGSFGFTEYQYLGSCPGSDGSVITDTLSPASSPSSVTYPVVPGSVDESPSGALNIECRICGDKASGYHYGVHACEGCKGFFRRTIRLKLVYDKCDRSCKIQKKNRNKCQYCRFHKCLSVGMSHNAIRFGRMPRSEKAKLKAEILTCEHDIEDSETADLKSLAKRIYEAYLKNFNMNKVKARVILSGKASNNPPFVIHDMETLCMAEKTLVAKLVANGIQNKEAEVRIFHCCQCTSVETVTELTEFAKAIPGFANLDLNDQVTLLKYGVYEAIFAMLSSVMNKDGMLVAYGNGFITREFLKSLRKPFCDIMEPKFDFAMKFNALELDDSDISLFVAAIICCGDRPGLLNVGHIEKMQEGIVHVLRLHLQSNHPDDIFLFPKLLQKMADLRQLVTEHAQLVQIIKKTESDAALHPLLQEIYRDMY

[2] = molecular target: T2, Peroxisome proliferator-activated receptor alpha (Homo sapiens) (UniProt Q07869); experiment: Agonist activity at wild-type human PPARalpha LBD expressed in COS7 cells after 12 hrs by Dual-Glo luciferase assay relative to control; format: cell-based; conditions: COS-7
T2 sequence (whole entry): T1 sequence (Q07869 whole entry)

[3] = molecular target: T3, Peroxisome proliferator-activated receptor gamma (Homo sapiens, UniProt P37231); experiment: Agonist activity at human PPARgamma LBD expressed in COS7 cells after 12 hrs by Dual-Glo luciferase assay; format: cell-based, COS-7
T3 sequence (P37231 whole entry): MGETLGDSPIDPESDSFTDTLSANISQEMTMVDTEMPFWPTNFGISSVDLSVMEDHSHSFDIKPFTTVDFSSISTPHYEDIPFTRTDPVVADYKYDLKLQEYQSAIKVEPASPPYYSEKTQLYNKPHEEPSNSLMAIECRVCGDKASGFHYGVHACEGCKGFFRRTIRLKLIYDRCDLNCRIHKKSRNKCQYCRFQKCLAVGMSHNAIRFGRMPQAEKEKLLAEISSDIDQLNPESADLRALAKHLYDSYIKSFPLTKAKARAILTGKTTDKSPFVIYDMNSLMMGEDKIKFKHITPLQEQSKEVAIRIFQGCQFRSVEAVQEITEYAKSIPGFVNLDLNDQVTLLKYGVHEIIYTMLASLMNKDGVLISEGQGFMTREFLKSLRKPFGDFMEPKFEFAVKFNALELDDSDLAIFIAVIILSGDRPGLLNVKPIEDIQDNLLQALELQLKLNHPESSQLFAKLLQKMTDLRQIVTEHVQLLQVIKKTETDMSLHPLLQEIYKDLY

[4] = molecular target: T4, Peroxisome proliferator-activated receptor gamma (Homo sapiens) (UniProt P37231); experiment: Agonist activity at human PPARgamma LBD expressed in COS7 cells after 12 hrs by Dual-Glo luciferase assay relative to pioglitazone; format: cell-based; conditions: COS-7
T4 sequence (whole entry): T3 sequence (P37231 whole entry)

[5] = molecular target: Peroxisome proliferator-activated receptor alpha (Homo sapiens, UniProt Q07869, T279A); experiment: Agonist activity at wild-type human PPARalpha Thr279Ala mutant expressed in COS7 cells after 12 hrs by Dual-Glo luciferase assay; format: cell-based, COS-7
Chain of Peroxisome proliferator-activated receptor alpha (Homo sapiens, UniProt Q07869, T279A) (Q07869 whole entry T279A): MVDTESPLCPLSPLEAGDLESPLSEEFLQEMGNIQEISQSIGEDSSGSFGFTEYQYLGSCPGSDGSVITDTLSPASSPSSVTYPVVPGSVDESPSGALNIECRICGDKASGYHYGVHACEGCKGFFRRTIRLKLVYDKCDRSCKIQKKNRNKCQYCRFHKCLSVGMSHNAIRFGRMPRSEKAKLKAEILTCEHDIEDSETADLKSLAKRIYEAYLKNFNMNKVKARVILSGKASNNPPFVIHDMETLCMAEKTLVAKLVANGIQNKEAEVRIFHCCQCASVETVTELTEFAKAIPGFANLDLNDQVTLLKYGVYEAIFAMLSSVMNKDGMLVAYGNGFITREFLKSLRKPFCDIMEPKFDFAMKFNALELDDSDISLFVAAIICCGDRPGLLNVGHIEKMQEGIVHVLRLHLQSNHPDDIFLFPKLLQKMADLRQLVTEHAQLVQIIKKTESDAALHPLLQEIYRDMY

[6] = tested on: T5, Peroxisome proliferator-activated receptor alpha (Homo sapiens), Q07869 [T279A]; experiment: Agonist activity at wild-type human PPARalpha Thr279Ala mutant expressed in COS7 cells after 12 hrs by Dual-Glo luciferase assay relative to control; format: cell-based; conditions: COS-7
T5 sequence (whole entry): T1 sequence (Q07869 whole entry) with T279A

[7] = tested on: COS-7; experiment: Selectivity ratio of EC50 for human PPARgamma LBD expressed in COS7 cells to EC50 for wild-type human PPARalpha LBD expressed in COS7 cells; format: cell-based
[8] = molecular target: T2, Peroxisome proliferator-activated receptor alpha (Homo sapiens); experiment: Agonist activity at wild-type human PPARalpha LBD expressed in COS7 cells after 12 hrs by Dual-Glo luciferase assay relative to pirinixic acid; format: cell-based; conditions: COS-7

EC50 [1] [µM]	%max [2] [%]	EC50 [3] [µM]	%max [4] [%]	EC50 [5] [µM]	%max [6] [%]	%max [8] [%]	Compound	Ratio EC50 [7]
0.28	134	1.2	117	0.07	105		CCCCCCC(Sc1nc(Cl)cc(Nc2ccc(C(=O)c3ccccc3)cc2)n1)C(=O)O (stereo not drawn)	
			79				Cc1cccc(Nc2cc(Cl)nc(SCC(=O)O)n2)c1C	
0.72	127	0.49	158	0.24	83		CCCCCCC(Sc1nc(Cl)cc(Nc2ccc(Cc3ccccc3)cc2)n1)C(=O)O (stereo not drawn)	
0.28	155	2.36	146	0.15	87		CCCCCCC(Sc1nc(Cl)cc(Nc2ccc(Oc3ccccc3)cc2)n1)C(=O)O (stereo not drawn)	
			120				CCCCC(Sc1nc(Cl)cc(Nc2cccc(C)c2C)n1)C(=O)O (stereo not drawn)	
0.07	95	0.69	126	0.1	115		CCCCCCC(Sc1nc(Cl)cc(Nc2ccc(Nc3ccccc3)cc2)n1)C(=O)O (stereo not drawn)	> 10
12	133	12.4	143				O=C(O)CSc1nc(Cl)cc(Nc2ccc(Nc3ccccc3)cc2)n1	
0.35	137	1.06	135				CCCCC(Sc1nc(Cl)cc(Nc2ccc(Nc3ccccc3)cc2)n1)C(=O)O (stereo not drawn)	
1			139			146	CCCCCCC(Sc1nc(Cl)cc(Nc2cccc(C)c2C)n1)C(=O)O (stereo not drawn)	
